Results reported in article PMC8943092, “Broad thermal spectrum metagenomic laccase with action for dye decolorization and fentin hydroxide treatment” (AMB Express, 2022).

Test system: LacMeta
Details: pH 4.0, 20 mM sodium citrate, 37 °C; copper-loaded enzyme 0.066 µM; ABTS 0.1-10 mM

Km: 4.22 ± 0.374 mM
SMILES: CCn1c(=NN=c2sc3cc(S(=O)(=O)O)ccc3n2CC)sc2cc(S(=O)(=O)O)ccc21 [ABTS, 2,2′-azino-bis (3-ethylbenzothiazoline-6-sulfonic acid)]
